# Test results published in ChEMBL document CHEMBL5634174, “Biological evaluation of sulfonate and sulfate analogues of lithocholic acid: A bioisosterism-guided approach towards the discovery of potential sialyltransferase inhibitors for antimetastatic study” (Bioorg Med Chem Lett, 2024).
# Tests used:
# [1] = biological target: T1, Sialyltransferase ST3Gal-I (Rattus norvegicus) (UniProt Q6H8N0); experiment: Inhibition of rat ST3GAL1 at 1000 uM by UPLC-based assay relative to control
# T1 sequence (whole entry): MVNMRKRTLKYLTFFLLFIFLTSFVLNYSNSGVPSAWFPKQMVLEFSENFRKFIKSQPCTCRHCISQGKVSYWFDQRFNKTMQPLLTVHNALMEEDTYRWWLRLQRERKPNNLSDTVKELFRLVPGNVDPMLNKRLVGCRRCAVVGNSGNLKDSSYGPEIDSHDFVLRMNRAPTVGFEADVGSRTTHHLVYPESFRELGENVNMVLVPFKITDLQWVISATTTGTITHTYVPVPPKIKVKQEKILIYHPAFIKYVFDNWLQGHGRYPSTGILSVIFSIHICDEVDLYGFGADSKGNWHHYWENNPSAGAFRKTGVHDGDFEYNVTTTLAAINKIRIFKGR
# Paxillin (Homo sapiens) = Paxillin (Homo sapiens) (UniProt P49023); experiment: Inhibition of paxillin phosphorylation at Y118 residue in human MDA-MB-231 cells incubated for 2 hrs by Western blot analysis; format: cell-based; settings: dose 20-80 µM
# Chain of Paxillin (Homo sapiens) (P49023 whole entry): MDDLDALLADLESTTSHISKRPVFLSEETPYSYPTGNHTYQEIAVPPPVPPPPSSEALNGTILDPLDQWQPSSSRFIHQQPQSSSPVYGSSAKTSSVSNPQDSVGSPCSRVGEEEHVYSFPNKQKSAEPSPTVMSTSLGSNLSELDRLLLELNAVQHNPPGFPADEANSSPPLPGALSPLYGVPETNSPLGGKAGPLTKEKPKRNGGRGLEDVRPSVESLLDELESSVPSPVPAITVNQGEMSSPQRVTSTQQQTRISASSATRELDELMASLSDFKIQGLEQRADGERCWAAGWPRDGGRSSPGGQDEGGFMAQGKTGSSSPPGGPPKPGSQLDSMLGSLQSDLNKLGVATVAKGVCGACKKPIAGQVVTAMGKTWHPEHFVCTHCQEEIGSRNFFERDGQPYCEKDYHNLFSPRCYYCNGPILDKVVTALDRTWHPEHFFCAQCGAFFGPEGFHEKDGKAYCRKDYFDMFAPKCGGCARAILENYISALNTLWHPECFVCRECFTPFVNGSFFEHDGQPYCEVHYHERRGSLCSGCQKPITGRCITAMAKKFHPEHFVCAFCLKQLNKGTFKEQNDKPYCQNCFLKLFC
# [2] = biological target: Focal adhesion kinase 1 (Homo sapiens) (UniProt Q05397); experiment: Inhibition of FAK phosphorylation at Y576/577 residue in human MDA-MB-231 cells incubated for 2 hrs by Western blot analysis; format: cell-based; settings: dose 20-80 µM
# Chain of Focal adhesion kinase 1 (Homo sapiens) (Q05397 2-1052 limits assumed): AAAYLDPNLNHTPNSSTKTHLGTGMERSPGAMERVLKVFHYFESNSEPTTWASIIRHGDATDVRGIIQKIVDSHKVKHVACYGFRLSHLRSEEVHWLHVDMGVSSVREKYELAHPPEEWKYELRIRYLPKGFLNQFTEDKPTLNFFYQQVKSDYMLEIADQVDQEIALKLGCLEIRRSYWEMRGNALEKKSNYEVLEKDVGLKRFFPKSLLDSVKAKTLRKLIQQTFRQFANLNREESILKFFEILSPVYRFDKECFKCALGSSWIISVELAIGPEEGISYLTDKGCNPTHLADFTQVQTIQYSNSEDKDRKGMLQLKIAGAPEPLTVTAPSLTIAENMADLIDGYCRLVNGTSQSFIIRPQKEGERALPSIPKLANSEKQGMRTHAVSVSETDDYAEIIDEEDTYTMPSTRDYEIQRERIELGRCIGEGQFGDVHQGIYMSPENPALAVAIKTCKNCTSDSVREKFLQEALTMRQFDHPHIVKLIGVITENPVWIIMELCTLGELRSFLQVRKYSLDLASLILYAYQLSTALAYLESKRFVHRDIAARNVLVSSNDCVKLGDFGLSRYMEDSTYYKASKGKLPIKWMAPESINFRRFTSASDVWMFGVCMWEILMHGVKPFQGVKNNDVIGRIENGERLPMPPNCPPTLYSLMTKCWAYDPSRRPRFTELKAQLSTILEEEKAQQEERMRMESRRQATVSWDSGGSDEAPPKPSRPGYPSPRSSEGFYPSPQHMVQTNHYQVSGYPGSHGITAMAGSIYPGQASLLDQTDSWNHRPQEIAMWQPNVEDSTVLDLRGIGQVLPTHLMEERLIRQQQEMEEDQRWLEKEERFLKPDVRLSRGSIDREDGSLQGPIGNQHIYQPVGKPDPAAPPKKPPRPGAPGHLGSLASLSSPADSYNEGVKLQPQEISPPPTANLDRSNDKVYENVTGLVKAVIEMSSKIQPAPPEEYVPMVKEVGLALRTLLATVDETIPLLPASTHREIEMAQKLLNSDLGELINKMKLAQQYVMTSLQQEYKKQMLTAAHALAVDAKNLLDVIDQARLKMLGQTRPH
# [3] = biological target: T1, Sialyltransferase ST3Gal-I (Rattus norvegicus); experiment: Inhibition of rat ST3GAL1 at 500 uM by UPLC-based assay relative to control
# [4] = biological target: T2, Integrin beta-5 (Homo sapiens) (UniProt P18084); experiment: Inhibition of integrin beta-5 in human MDA-MB-231 cells assessed as decrease in sialylation level incubated for 48 hrs by Western blot analysis; format: cell-based; settings: dose 20-80 µM
# T2 sequence (whole entry): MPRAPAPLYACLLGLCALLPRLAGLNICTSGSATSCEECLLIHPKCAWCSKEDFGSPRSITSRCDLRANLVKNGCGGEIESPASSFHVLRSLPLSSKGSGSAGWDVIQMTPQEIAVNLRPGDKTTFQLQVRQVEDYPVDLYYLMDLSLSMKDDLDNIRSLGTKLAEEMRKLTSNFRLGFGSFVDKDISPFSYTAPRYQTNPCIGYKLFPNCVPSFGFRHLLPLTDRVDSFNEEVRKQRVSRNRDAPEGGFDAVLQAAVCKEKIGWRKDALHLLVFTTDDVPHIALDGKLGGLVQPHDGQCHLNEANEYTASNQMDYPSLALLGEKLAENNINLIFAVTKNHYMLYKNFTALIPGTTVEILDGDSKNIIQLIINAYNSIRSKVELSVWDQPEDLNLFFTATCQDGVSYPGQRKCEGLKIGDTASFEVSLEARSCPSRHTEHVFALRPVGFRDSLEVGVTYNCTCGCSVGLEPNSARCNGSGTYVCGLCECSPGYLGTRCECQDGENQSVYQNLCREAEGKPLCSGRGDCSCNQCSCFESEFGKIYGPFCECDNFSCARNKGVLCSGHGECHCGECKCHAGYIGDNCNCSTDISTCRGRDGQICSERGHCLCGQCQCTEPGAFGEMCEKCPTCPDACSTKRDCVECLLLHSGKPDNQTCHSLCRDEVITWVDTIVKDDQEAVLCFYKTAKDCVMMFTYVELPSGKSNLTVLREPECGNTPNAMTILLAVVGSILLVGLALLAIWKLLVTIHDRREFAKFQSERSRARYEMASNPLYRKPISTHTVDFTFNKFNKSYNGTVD
smiles,measurement,setting,value
C[C@H](CCCOS(=O)(=O)O)[C@H]1CC[C@H]2[C@@H]3CC[C@@H]4C[C@H](O)CC[C@]4(C)[C@H]3CC[C@]12C,inhibition,[1],15%
same,inhibition,Paxillin (Homo sapiens),Dose-Dependent Effect
same,inhibition,[2],Dose-Dependent Effect
same,inhibition,[3],3%
same,Activity,[4],Dose-Dependent Effect
